# Assay results taken from patent EP0537993A1, “Nicotinic activity of a series of arecolones and isoarecolones” (ELI LILLY AND COMPANY, priority 1991, dated 1993).
# Where a name gives a salt, the structure may show the parent alone.
# Key:
# rats = conditions: cited from earlier work
# muscarinic receptors = test: Inhibition of 3H-oxotremorine-M binding to hippocampal membranes; conditions: [3H]oxotremorine ([3H]OXO) binding, muscarinic receptor affinity, rat membranes
# Procedure: The hippocampus from male Sprague-Dawley rats was homogenized in 10 volumes of 0.32 M sucrose, centrifuged at 1000 x g for 10 min, and the supernatant was centrifuged at 17,000 x g for 20 min. The synaptosoma! fraction (P₂) pellet was homogenized in 50 volumes of 20 mM Tris-Cl buffer, pH 7.4, and centrifuged at 50,000 x g for 10 min. After resuspension in buffer, the suspension was preincubated for 30 min at 4 °C, and centrifuged again. The pellet was resuspended in 3 volumes of buffer and frozen at -70 °C until used.
# For oxotremorine-M binding, the homogenates were incubated at 25 °C for 15 min. After incubation, the homogenates were filtered through Whatman GF/C filters with vacuum. The filters were rinsed 3X with 1 mL of cold buffer and placed in scintillation vials containing Ready Protein+ (Beckman) scintillation fluid. Radioactivity trapped on the filters was determined by liquid scintillation spectrometry. Non specific binding was determined using 1 µM atropine.
# The concentration of compound required to inhibit binding 50% (IC₅₀) was calculated using the ALLFIT program.
# nicotinic receptors = nicotinic receptors (Rattus norvegicus, UniProt P09483+P12390); test: [3H]N-methyl-carbamyl choline ([3H]MCC) binding to rat brain cortical membranes; conditions: selectivity for nicotinic over muscarinic receptors
# Chain of nicotinic receptors (P09483 31-630): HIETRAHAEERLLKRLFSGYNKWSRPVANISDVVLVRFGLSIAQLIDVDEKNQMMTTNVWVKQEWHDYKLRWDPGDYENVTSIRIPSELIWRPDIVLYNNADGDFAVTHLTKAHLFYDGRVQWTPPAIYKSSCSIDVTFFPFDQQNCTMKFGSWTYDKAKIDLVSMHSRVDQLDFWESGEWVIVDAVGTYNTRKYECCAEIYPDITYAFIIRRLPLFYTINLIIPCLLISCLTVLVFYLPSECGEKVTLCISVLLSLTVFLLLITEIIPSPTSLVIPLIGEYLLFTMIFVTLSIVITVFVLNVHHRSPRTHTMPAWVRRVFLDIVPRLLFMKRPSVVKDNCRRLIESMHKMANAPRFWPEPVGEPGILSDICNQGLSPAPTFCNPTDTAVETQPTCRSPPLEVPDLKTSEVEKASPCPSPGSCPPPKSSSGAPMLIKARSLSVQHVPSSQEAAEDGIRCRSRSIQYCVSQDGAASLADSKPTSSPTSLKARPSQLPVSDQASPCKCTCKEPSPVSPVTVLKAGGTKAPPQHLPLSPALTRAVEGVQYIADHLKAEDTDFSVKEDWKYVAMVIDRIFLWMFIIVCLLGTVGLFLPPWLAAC
# Chain of nicotinic receptors (P12390 25-500): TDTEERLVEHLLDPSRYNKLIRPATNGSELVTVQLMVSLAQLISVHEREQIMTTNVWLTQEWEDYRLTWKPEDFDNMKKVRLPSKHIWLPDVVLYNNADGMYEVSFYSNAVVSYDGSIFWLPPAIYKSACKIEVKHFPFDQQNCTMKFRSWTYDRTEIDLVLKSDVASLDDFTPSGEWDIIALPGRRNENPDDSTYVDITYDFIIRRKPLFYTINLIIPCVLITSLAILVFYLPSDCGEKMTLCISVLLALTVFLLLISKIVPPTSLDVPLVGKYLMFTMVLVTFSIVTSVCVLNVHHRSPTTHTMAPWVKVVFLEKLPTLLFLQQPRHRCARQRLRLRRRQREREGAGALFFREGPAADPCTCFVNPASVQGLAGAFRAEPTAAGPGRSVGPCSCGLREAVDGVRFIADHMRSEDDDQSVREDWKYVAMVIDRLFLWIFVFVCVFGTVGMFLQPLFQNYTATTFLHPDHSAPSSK
# Procedure: Binding to rat brain nicotinic receptors was performed using the method of Abood and Grassi. Abood, L.E. et al., Biochem. Pharmacol. 35:4199-4202 (1987). Frozen rat brain cortices (Pel-Freez Biologicals, Roger, AR) were homogenized using a Polytron (Binkmann PT-10; setting 6 for 15 sec) in 30 volumes of buffer (50 mM tris, 120 mM sodium chloride, 5 mM potassium chloride, 2 mM calcium chloride, 1 mM magnesium chloride, pH 7.3 at 4°C). The homogenate was centrifuged at 1,000 xg for 10 min. (Sorval RC-5B; SA600 rotor). The supernatant was then centrifuged at 40,000 xg for 20 min. The final pellet was resuspended in buffer at a concentration of 12 vol./gram wet weight of tissue. Final protein concentrations for each assay were determined using the Lowry et al. method. Lowry, O.H. et al., J. Biol. Chem. 193:265-275 (1951).
# [³H]N-Methyl-carbamyl choline iodide ([³H]MCC) binding to rat cortices was measured by filtration. Compounds dissolved in distilled water at concentrations of 1 nM to 1 mM, were incubated with [³H]MCC (1 nM), membrane aliquots (approximately 1.5 mg./ml. protein) and buffer, in a final volume of 0.5 ml. […] Nonspecific [³H]MCC binding was determined in the presence of 10 mM nicotine. […]
# Radioactivity bound was determined after a period of equilibration (at least 5 hr) in Beckman Ready Protein Scintillation Cocktail using a Beckman LS5000 TA counter with an efficiency of 43%. […]
# [1] = system: nicotinic and muscarinic receptors; conditions: cited from earlier work
molecule,measurement,setting,value
CC(=O)C1=CCN(C)CC1 [isoarecolone HCl],nicotine-like discriminative stimulus effects,rats,produce nicotine-like discriminative stimulus effects
"CCC(C)C(=O)C1=CCN(C)CC1 (stereo not drawn) [Example 11, 1-(1,2,3.6-Tetrahydro-1-methyl-4-pyridinyl)-2-methylbutanone]",Ki,muscarinic receptors,4.79 µM
"CN1CC=C(C(=O)C(C)(C)C)CC1 [Example 12, 1-(1,2,3,6-Tetrahydro-1-methyl-4-pyridinyl)-2,2-dimethylpropanone]",Ki Ratio OXO/MCC,nicotinic receptors,110
same,Ki,muscarinic receptors,6.25 µM
"1-methyl-4-acetyl-1,2,3,6-tetrahydropyridine [isoarecolone methiodide]",agonist which binds to nicotinic and muscarinic receptors,[1],very potent agonist
same,nicotine-like discriminative stimulus effects,rats,produce nicotine-like discriminative stimulus effects
